This note sets out measurements from patent US20210379079A1, “COMPOSITIONS COMPRISING CD20 INHIBITORS AND BISFLUOROALKYL-1,4-BENZODIAZEPINONE COMPOUNDS AND METHODS OF USE THEREOF” (Ayala Pharmaceuticals Inc., priority 2018, published 2021).

What all share (assay): Cell surface CD20 levels by flow cytometry (FACS) after GSI treatment
What all share (assay type): cell-based
(A flow cytometer gives signals particle by particle.)

Assay [1] has as its system SUDHL-4 cells. The settings on record: SUDHL-4 (DLBCL); for CD20 levels: separate experiment, 0.001-10 μM, 7 days at 37° C., FIG. 2. As for the experimental part:
(§1) The effect of γ-secretase inhibitors (GSIs) on levels of CD20 in lymphoma cell lines was examined (FIG. 1). Cells from five different lymphoma cell lines (SP49 (mantle cell lymphoma (MCL) with Notch4 GOF); Toledo (Diffuse large B-cell lymphoma (DLBCL)); RC (Double Hit DLBCL-MYC, BCL2); SUDHL-4 (DLBCL); and SUDHL-6 (DLBCL)) were treated for 7 days with 0, 1 nM, 10 nM, 100 nM, 500 nM, 1000 nM, and 10000 nM of the following GSIs: Compound 1 (FIG. 1A) or Compound 22 (FIG. 1B). Cell surface CD20 levels were observed by flow cytometry (FACS analysis).
(§2) In a separate experiment, cells from lymphoma cell lines SUDHL-4 (DLBCL); Rec-1 (MCL); and SP49 (MCL) were seeded at 1×10^4 cells/well in a total volume of 250 μl into a 96-well plate. The cells were cultured in RPMI supplemented with 10% FCS.
(§3) Compound 1 or Compound 22 were added to the cell cultures at concentrations of 10, 1, 0.5, 0.1, 0.01, 0.001 μM. Following 7 days of incubation at 37° C., the cells were collected and stained with anti CD20 antibody and cell surface CD20 levels were immediately analyzed by flow cytometry (FACS analysis).

Assay [2] has as its system SP49 cells. The settings on record: for cell surface CD20 levels: SP49 (MCL with Notch4 GOF), 7 days, 0-10000 nM, FIGS. 1A-1B. As for the experimental part: as §1, §2, §3
Assay [3] has as its system Rec-1 (MCL). Particulars: separate experiment, 0.001-10 μM, 7 days at 37° C., FIG. 2. The method, then:
as §2, §3

Consider `CN1C(=O)[C@@H](NC(=O)[C@H](CCC(F)(F)F)[C@H](CCC(F)(F)F)C(N)=O)N=C(c2ccccc2)c2ccccc21` [Compound 1, (2R,3S)-N-((3S)-1-methyl-2-oxo-5-phenyl-2,3-dihydro-1H-1,4-benzodiazepin-3-yl)-2,3-bis(3,3,3-trifluoropropyl)succinamide], for which the “cell surface CD20 levels” value in assay [1] (7 days, 0-10000 nM, FIG. 1A) was “increased cell surface CD20 levels”; in assay [2], “increased cell surface CD20 levels”. In addition, the CD20 levels entry in assay [1] is “dose-dependent increase in CD20 levels”; in assay [2] (separate experiment, SP49 (MCL), 0.001-10 μM, 7 days at 37° C., FIG. 2), “dose-dependent increase in CD20 levels”; in assay [3], “dose-dependent increase in CD20 levels”.
In the case of `Cc1cccc2c1NC(=O)[C@@H](NC(=O)[C@H](CCC(F)(F)F)[C@H](CCC(F)(F)F)C(N)=O)N=C2c1cccc(F)c1` [Compound 22, (2R,3S)-N-((3S)-5-(3-fluorophenyl)-9-methyl-2-oxo-2,3-dihydro-1H-1,4-benzodiazepin-3-yl)-2,3-bis(3,3,3-trifluoropropyl)succinamide], the CD20 levels result in assay [1] and in assay [3] was “dose-dependent increase in CD20 levels” in each case. Besides, the “cell surface CD20 levels” value in assay [2] was “increased cell surface CD20 levels”.
